Reference: patent publication US20080293698A1, “Methods and Compositions for Treating Arg” (priority 2005, published 2008)
“And” between values parts separate entries of the source, which are not always exact repeats. Equal values may be shown once. Where a name gives a salt, the structure may show the parent alone.

What was measured:
patient with ARG = test: Case reports: patients with ARG treated with GABAnergic agents prior to sleep; assay type: in vivo, human
Excerpt: The patient was then switched to monotherapy using only NaGHB 4.5 grams prior to the intended sleep time and a second dose of 4.5 grams four hours after the first. […] The patient was switched back to treatment with multiple GABAnergic agents and again had dramatic reduction in fatigue. On a scale from 0 to 10 where 10 is the most tired, the patient rated the fatigue at 10 without treatment, 3 to 4 with treatment on multiple GABAnergic agents, and 10 on monotherapy with NaGHB.
A patient with ARG was treated with the Class IV agent zolpidem 10 mg, The Class III agent alprazolam 2 mg, the Class V agent gabapentin 200 mg, and the Class II agent sodium salt of gamma-hydroxyl butyrate 5.25 grams prior to sleep. The patient was treated chronically on a nightly basis. Sometimes, according to the patient's judgement, 3.75 grams of the sodium salt of gamma-hydroxyl butyric acid was consumed upon awakening, which usually was about six hours after the first dose of medications.
In another example a patient with ARG was given the Class I agent 660 ml red wine 13.5% alcohol by volume, the Class III agent alprazolam 3 mg, the Class V agent gabapentin 300 mg, and the Class IV agent 10 mg zolpidem. Five hours later, the patient was awoken and given the Class II agent the sodium salt of gamma-hydroxyl butyric acid 3 grams.
In another example a patient with ARG was treated with the Class I agent 660 ml red wine 13.5% alcohol by volume, the Class I agent liqeur 30% alcohol by volume 200 ml, the Class III agent alprazolam 2 mg, the […] 200 mg, and the Class II agent the sodium salt of gamma-hydroxyl butyric acid 4 grams prior to sleep.
A patient with acquired resistance to GABAnergic agents was treated with the Class III agent alprazolam 2 mg, the Class IV agent zolpidem 10 mg, the Class V agent gabapentin 200 mg, and the Class II agent NaGHB 7 grams. […] 7 grams NaGHB as a single dose is a large dose, which may be too toxic for some patients.
A patient with acquired resistance to GABAnergic agents was treated with the Class I agent red wine 660 ml 13.5% alcohol by volume, then the Class III agent alprazolam 3 mg, the Class V agent gabapentin 300 mg, the Class IV agent zolpidem 10 mg, and the Class II agent NaGHB 9 grams. 4 hours after sleep onset the patient awoke in a neighboring room in a pool of vomitus of partially digested wine. The patient was lucid and had mild nausea. The patient went back to sleep in bed for an additional 2 hours and was able to work the next day. […] The combination of red wine and such large doses of GHB are not typically recommended by the inventor and can be fatal.
A patient with ARG was given the Class III agent alprazolam 7 mg, the Class IV agent zolpidem 10 mg, and the Class V agent gabapentin 300 mg prior to sleep. […] The dose of alprazolam may be reduced by adding a Class I or Class II agent to the regimen.
A patient with ARG who had minimal obstructive sleep apnea was chronically treated with the Class I agent red wine about 200 to 1500 ml 13.5% alcohol by volume, the Class IV agent zolpidem 10 mg, the Class III agent alprazolam 3 mg, and the Class V agent gabapentin 300 mg prior to sleep. Sufficient wine was consumed to produce moderate to strong sleepiness and then the other GABAminergic medications were consumed. When the volume of wine on a particular night required to induce strong sleepiness was inconvenient, the patient quickly drank liqeur 30% alcohol by volume, typically about 160 ml, in order to induce strong sleepiness.
A patient with ARG who had minimal obstructive sleep apnea was chronically treated with the Class I agent red wine about 660 to 1500 ml about 13% alcohol by volume, the Class IV agent zolpidem 10 mg, the Class III agent alprazolam 3 mg, and the Class V agent gabapentin 300 mg prior to sleep. Sufficient wine was consumed to produce moderate to strong sleepiness and then the other GABAnergic medications were consumed. […]

pH of NaGHB solution = assay type: physicochemical; conditions: 240 mg per ml
Procedure: The pH of NaGHB at 240 mg per ml is approximately 9.5, at which neither pathogenic nor non-pathogenic organisms grow. As the concentration of NaGHB is increased, the pH is yet higher. […] Concentrated NaGHB is highly toxic regardless of pH and must be diluted prior to consumption. The pH of NaGHB at 500 mg/ml drops rapidly into the physiologic range upon dilution. Highly concentrated GBL and 1,4-butanediol are known to be resistant to microbial growth, require no special storage procedures, and likewise must be diluted prior to consumption, typically to 5% to 30% solutions but more preferably 5% to 20%.

[1] = system: patients with fibromyalgia or chronic fatigue syndrome; conditions: cited from earlier work
[2] = system: patients with fibromyalgia; conditions: 3 grams NaGHB at bedtime and a second dose about 4 h later; cited from earlier work
[3] = system: patient with a sleeping disorder; test: Case report: patient with a sleeping disorder treated with alprazolam, zolpidem, gabapentin and NaGHB (Example 86); assay type: in vivo, human
Procedure: Overnight polysomnography had shown minimal obstructive sleep apnea with 2 apneas per hour of sleep. The patient was placed on a regimen of the Class III agent alprazolam, the Class IV agent zolpidem, the Class V agent gabapentin, and the Class II agent the sodium salt of gamma-hydroxyl butyric acid (GHB), which were administered prior to sleep for the treatment of sleeping disorders. The initial dose of GHB was prescribed as 2.25 grams prior to sleep and repeat dose of 2.25 grams to be taken 2.5 to 4 hours after sleep onset.
At a dose of 3 grams prior to sleep and a second dose upon awakening, the patient was eating only one to two small meals per day. Their maximum previous weight had been 169 lbs and their baseline weight was 159 pounds. They lost weight down to 145 lbs and looked gaunt. They believed that the GHB had suppressed their appetite and consulted an endocrinologist, who did a thorough medical evaluation including an am cortisol, a comprehensive chemistry profile, a CBC, and thyroid studies, all of which were normal. The patient discontinued the GHB and their appetite returned within two days. Over roughly five months, they then gained weight up to 195 lbs and their weight remained stable.

[4] = Chemical stability of GHB as a function of pH (cyclization to GBL); assay type: physicochemical
patients = conditions: therapeutic doses, GHB as lone agent; cited from earlier work
GHB receptor = conditions: reported in United States patent application 20020132846; cited from earlier work
human subjects = test: 4-HPA and 4-HPA lactone administered to human subjects (Example 53); conditions: for effects experienced by the subjects: at equivalent doses of GHB toxicity or sleep would have occurred

O=C(O)CCCO [NaGHB, sodium salt of gamma-hydroxyl butyric acid]
improvement on monotherapy (patient with ARG; NaGHB 4.5 grams twice per sleep period, no other GABAnergic agent): no improvement | sleep induction by the first dose (patient with ARG; monotherapy, NaGHB 4.5 grams prior to the intended sleep time): did not induce sleep at all | duration of sleep induced by the second dose (patient with ARG; monotherapy, second dose of 4.5 grams four hours after the first): two | side effects / toxicity (patient with ARG; patient with ARG on the regimen): state of near stupor | fatigue rated by the patient (patient with ARG; scale from 0 to 10 where 10 is the most tired, 10 without treatment): 10 | pH of the solution (pH of NaGHB solution): approximately 9.5 | sleep obtained per dose ([1]; 2.25 grams NaGHB at bedtime and again four hours later, in some instances): 2 to 3 h | effect in patients diagnosed with chronic fatigue syndrome ([1]; pilot open label trial, quoted from document C): no effect | patients in the treatment arm who withdrew due to side effects [2]: Six of 24

O=C(O)CCCO [GHB, gamma hydroxyl butyric acid]
sleep induction by the second dose of GHB (patient with ARG; 3.75 grams upon awakening, about six hours after the first dose of medications): usually did not induce sleep | sleep induction by the second dose of GHB ([3]; 3.75 grams upon awakening): usually did not induce sleep | body weight on treatment ([3]; baseline weight 159 pounds, 3 grams prior to sleep and a second dose upon awakening): 145 lbs | medical evaluation (am cortisol, comprehensive chemistry profile, CBC, thyroid studies) ([3]; during weight loss on GHB): normal | time to return of appetite after discontinuing GHB ([3]; human, in vivo): two | appetite ([3]; within one week of beginning to take the GHB): marked decrease in appetite | pH at which gamma-butyryl lactone (cyclized form) begins to form [4]: ≤ 6 | duration of the sleep inducing effect (patients): 2 to 3 h and 2 to 4 h

CC1CCC(=O)O1 (stereo not drawn) [4-HPA lactone, 4-hydroxyl pentanoic acid lactone]
binding to the GHB receptor (GHB receptor): bind the GHB receptor | toxicity compared with GHB (human subjects): less toxic than GHB | effects experienced by the subjects (human subjects): relaxing effects

CC(O)CCC(=O)O (stereo not drawn) [Example 4-HPA, 4-hydroxyl pentanoic acid]
toxicity compared with GHB (human subjects): less toxic than GHB | effects experienced by the subjects (human subjects): relaxing effects

cyanocobalamin
fatigue on the increased dose of cyanocobalamin (patient with ARG; 2000 mcg IM about every three days, in addition to multiple GABAnergic agents): mild decrease in fatigue | mouth sores under vitamin treatment (patient with ARG; cyanocobalamin 500 mcg IM once, 'rotate' 5 mg orally, multivitamin containing thiamine 1.5 mg, patient on Example 90a regimen): resolved
